Results: article PMC9268515, “UGT1A1 and UGT1A9 Are Responsible for Phase II Metabolism of Tectorigenin and Irigenin In Vitro” (Molecules, 2022)

Tests used:
UGT1A1 = target: T1, UGT1A1 (Homo sapiens, UniProt P22309); assay: Recombinant UGT reaction screening and enzyme kinetics, UGT1A1; type: in vitro ADME; details: recombinant UGT1A1 screening
T1 construct: purchased BD Biosciences (Woburn, MA, USA)
T1 sequence (P22309 26-533): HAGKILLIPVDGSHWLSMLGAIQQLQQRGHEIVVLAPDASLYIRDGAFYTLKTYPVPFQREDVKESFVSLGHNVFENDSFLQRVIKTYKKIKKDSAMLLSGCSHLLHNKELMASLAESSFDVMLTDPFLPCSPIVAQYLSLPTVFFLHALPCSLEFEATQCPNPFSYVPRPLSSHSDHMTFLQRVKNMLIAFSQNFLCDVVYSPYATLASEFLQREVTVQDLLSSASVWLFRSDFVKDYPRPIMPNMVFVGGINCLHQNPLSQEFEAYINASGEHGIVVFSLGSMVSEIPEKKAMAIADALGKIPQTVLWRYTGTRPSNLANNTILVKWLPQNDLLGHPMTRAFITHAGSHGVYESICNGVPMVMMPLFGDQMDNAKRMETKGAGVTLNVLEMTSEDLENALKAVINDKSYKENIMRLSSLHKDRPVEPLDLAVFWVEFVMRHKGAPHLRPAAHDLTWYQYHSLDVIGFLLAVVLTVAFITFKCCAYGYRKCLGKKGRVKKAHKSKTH
Procedure: (§1) UGT reaction screening of tectorigenin and irigenin was conducted using nine commercially available human UGTs (UGT1A1/1A3/1A4/1A6/1A9/2B4/2B7/2B15/2B17). Furthermore, we studied the enzymatic kinetic characteristics of tectorigenin and irigenin using UGT1A1 and UGT1A9. Six concentrations of tectorigenin and irigenin (1, 3, 10, 30, 100, and 300 μM) were incubated in triplicate in order to obtain the enzyme kinetic characteristics of tectorigenin and irigenin glucuronide.
(§2) For both HLMs and UGTs, metabolic kinetic analysis was performed by fitting the data to the Michaelis-Menten model. The Km and Vmax of enzymes were calculated as follows:(3) V=Vmax×[S]/Km+[S], where [S] is the substrate concentration. All results were shown as the mean ± standard error (SE). Differences among different groups were compared using one-way analysis of variance. A p-value < 0.05 was considered statistically significant.

[1] = Stability experiment under different storage conditions; type: physicochemical; details: autosampler 12 h at 4 °C
Procedure: In the stability experiment, we evaluated the stability of tectorigenin and irigenin, as well as their metabolites, under different conditions. […] Metabolites (M, M1, and M2) were stable in the inactivated metabolic system for 2 h (held constant at approximately 25 °C) and after storage for 7 days (−80 °C), as well as in the pretreated samples placed in the autosampler for 12 h at 4 °C.

[2] = system: pooled human liver microsomes (HLMs); assay: Glucuronidation kinetics of tectorigenin and irigenin in HLMs; type: in vitro ADME; details: tectorigenin glucuronidation in HLMs, metabolite M
Procedure: To obtain suitable incubation conditions, we first evaluated the linearity of metabolite formation at different times (10–60 min), the UDPGA concentrations (0.5–5 mM), and the microsome protein concentrations in HLMs (0.2–2 mg/mL). The final incubation medium used in the experiment contained MgCl2 (10 mM), microsomes (0.5 mg/mL), 1,4-lactone monohydrate (5 mM), alamethicin ([…]), UDPGA (1 mM), and different concentrations of tectorigenin or irigenin (1–300 μM) in Tris-HCl buffer (50 mM, pH 7.4). The mixture was incubated at 37 °C for 30 min; then, the reaction was stopped by adding ice-cold methanol. After the mixtures were centrifuged (17,000 rpm, 10 min), and the supernatant was analyzed by HPLC. Michaelis–Menten parameters (Vmax and Km) were determined on the basis of the nonlinear regression of the plot of the substrate concentration vs. rate of metabolite formation.
as §2

UGT1A6 = target: T2, UGT1A6 (Homo sapiens, UniProt P19224); assay: Recombinant UGT reaction screening, UGT1A6; type: in vitro ADME
T2 construct: purchased BD Biosciences (Woburn, MA, USA)
T2 sequence (P19224 27-532): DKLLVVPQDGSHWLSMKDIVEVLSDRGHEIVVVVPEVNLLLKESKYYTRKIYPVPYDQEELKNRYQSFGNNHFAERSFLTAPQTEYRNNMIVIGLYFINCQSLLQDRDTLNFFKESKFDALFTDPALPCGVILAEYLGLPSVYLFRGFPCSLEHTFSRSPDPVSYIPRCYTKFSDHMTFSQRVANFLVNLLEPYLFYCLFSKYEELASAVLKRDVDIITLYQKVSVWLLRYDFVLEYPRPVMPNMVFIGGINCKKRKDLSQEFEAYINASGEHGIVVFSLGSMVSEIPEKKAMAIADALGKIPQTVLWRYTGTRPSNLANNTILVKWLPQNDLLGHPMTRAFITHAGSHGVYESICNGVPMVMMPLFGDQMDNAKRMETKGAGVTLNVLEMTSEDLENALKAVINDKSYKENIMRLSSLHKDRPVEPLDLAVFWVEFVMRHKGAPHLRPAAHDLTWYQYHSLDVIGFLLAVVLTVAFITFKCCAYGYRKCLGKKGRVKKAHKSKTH
Procedure: as §1

UGT2B17 = target: T3, UGT2B17 (Homo sapiens, UniProt O75795); assay: Recombinant UGT reaction screening, UGT2B17; type: in vitro ADME
T3 construct: purchased BD Biosciences (Woburn, MA, USA)
T3 sequence (O75795 24-530): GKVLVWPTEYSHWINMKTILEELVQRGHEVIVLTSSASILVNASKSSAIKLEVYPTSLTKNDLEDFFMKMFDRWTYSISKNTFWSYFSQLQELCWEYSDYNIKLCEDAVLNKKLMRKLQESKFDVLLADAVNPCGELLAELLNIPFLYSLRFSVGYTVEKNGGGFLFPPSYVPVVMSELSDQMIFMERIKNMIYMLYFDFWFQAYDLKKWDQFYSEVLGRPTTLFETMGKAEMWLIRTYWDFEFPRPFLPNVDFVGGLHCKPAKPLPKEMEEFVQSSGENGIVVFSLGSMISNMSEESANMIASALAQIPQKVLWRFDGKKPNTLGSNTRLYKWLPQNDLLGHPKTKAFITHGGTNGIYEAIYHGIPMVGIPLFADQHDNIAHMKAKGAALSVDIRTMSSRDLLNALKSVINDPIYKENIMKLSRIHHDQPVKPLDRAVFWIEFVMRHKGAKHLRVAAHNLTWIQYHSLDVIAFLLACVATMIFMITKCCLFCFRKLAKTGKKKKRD
Procedure: as §1

- Activity in glucuronidation of tectorigenin (UGT1A1): highest activity
- Stability in pretreated samples in the autosampler [1]: stable
- RE and RSD values in pretreated samples in the autosampler ([1]; printed as below ±5%): < 5%
- Km ([2]; read-out: Km for M formation): 32.8 ± 4.79 µM
- Activity in glucuronidation of tectorigenin (UGT1A6): some activity
- Activity in glucuronidation of tectorigenin (UGT2B17): none
Compound: COc1c(O)cc2occ(-c3ccc(O)cc3)c(=O)c2c1O [Tectorigenin, 5,7,4′-trihydroxyl-6-methoxyl isoflavone]
- Vmax for M formation [2]: 5.87 ± 0.25 nmol/min/mg
